Tests used:
[1] = for molar entropy: Small (less than 1 g) adiabatic calorimetry; for vapor or sublimation pressure: Transpiration method
[2] = Molar enthalpy of transition or fusion; settings: Crystal; Adiabatic calorimetry

CC(C)(C)c1ccc(Oc2ccccc2)cc1 [4-tert-butylphenyl phenyl ether]
molar entropy [J/K/mol], [1], 101.33 kPa
Settings	Crystal	Liquid
5 K	0.2278	–
10 K	1.746	–
15 K	5.404	–
20 K	10.73	–
25 K	17.29	–
30 K	24.28	–
35 K	31.51	–
40 K	38.91	–
45 K	46.23	–
50 K	53.46	–
60 K	67.76	–
70 K	81.81	–
80 K	95.45	–
90 K	108.59	–
100 K	121.31	–
110 K	133.7	–
120 K	145.84	–
130 K	157.73	–
140 K	169.45	–
150 K	180.92	–
160 K	192.23	–
170 K	203.29	–
180 K	214.26	–
190 K	225.07	–
200 K	235.72	–
210 K	246.36	–
220 K	256.83	–
230 K	267.23	–
240 K	277.54	–
250 K	287.85	–
260 K	298.16	–
270 K	308.47	–
280 K	318.69	–
290 K	328.92	–
298.15 K	337.23	–
300 K	339.15	–
310 K	349.29	–
320 K	359.35	–
327.84 K	367.17	434.26
330 K	–	436.76
340 K	–	448.48
350 K	–	460.04
360 K	–	471.51
370 K	–	482.82

Settings	mass density [kg/m3]
[1], 298.15 K, 101.33 kPa, Crystal, Pycnometric method	997.5

[1]
Settings	Triple point temperature [K]	vapor or sublimation pressure [kPa]
298.46 K, Crystal	–	4.8e-05
299.37 K, Crystal	–	5.3e-05
300.45 K, Crystal	–	6.1e-05
303.52 K, Crystal	–	9.5e-05
306.47 K, Crystal	–	0.000135
310.47 K, Crystal	–	0.000222
310.5 K, Crystal	–	0.000229
312.53 K, Crystal	–	0.000285
314.45 K, Crystal	–	0.000363
315.5 K, Crystal	–	0.000405
316.51 K, Crystal	–	0.000466
317.52 K, Crystal	–	0.00055
318.5 K, Crystal	–	0.000621
319.52 K, Crystal	–	0.000689
320.55 K, Crystal	–	0.000755
321.53 K, Crystal	–	0.000855
322.52 K, Crystal	–	0.00095
323.45 K, Crystal	–	0.001031
323.55 K, Crystal	–	0.001042
324.53 K, Crystal	–	0.001212
Crystal, Adiabatic calorimetry	327.84	–

Settings	Molar enthalpy of transition or fusion [kcal/mol]
[2]	5.255

— the NIST ThermoML archive (doi:10.1016/j.jct.2015.03.019)
